Source: patent US20050187196A1, “Treatment of attention disorders” (Saegis Pharmaceuticals, Inc., priority 2004, published 2005)

What was measured:
[1] = tested on: striatal dopamine release; conditions: administration in the substantia nigra pars reticulata (SNr); cited from earlier work
[2] = tested on: coloboma mutant mice (Cm/+); assay: Open field test, coloboma mutant mice; format: in vivo, mouse; conditions: for frequency of zone crossings / total distance traveled / locomotor activity: final 30 min
Excerpt: (§1) Male and female mice heterozygous for the coloboma spontaneous mutation (C3H/HeSnJ-Cm/J) and wild type (C3H/HeSNJ) mice from Jackson Laboratories (Bar Harbor, Me.) were used in this study. Upon receipt, mice were assigned unique identification numbers (tail marked) and were housed in polycarbonate cages with filter tops. All mice were acclimated to the colony room for at least two weeks prior to testing. During the period of acclimation, mice were examined on a regular basis, handled, and weighed to assure adequate health and suitability. Mice were maintained on a 12/12 light/dark cycle. Chow and water were provided ad libitum for the duration of the study. In each test, animals were randomly assigned across treatment groups and balanced by age and by gender. Animals were not disturbed between test days.
(§2) The open field test (OF) is used to assess both anxiety-like behavior and motor activity. The open field chambers are Plexiglas square chambers (27.3×27.3×20.3 cm; Med Associates Inc., St Albans, Vt.) surrounded by infrared photobeam sources (16×16×16). The enclosure was configured to split the open field into a center and periphery zone and the photocell beams were set to measure activity in the center and in the periphery of the OF chambers. Animals having higher levels of anxiety or lower levels of activity tend to stay in the corners of the OF enclosures. On the other hand, mice that have high levels of activity and low levels of anxiety tend to spend more time in the center of the enclosure. Distance traveled is measured from consecutive beam breaks. Measures of peripheral or central distance covered during locomotion were used as an index of activity.
(§3) ABPA (0.3, 3 and 30 mg/kg) and atomoxetine (0.1 mg/kg) were dissolved in saline and administered i.p. at the injection volume of 10 ml/kg. Mice were pretreated with saline, ABPA, or atomoxetine for 30 min, after which their behavior was recorded in the OF chambers for a 60-min test session. At the end of each open field test session the OF chambers were thoroughly cleaned with Clorox wipes. Mice were returned to their home cage after testing and then to the colony room. Mice were retested every week. The washout period between tests ranged from 3-7 days. Data were analyzed by analysis of variance (ANOVA), followed by Fisher PLSD post-hoc analysis when appropriate. An effect was considered significant if p<0.05. Outliers that fell above and below two standard deviations away from the mean were removed from the final analysis.
(§4) Since the effects of all drugs reached a stable response by 20-30 min following the start of the experiment, the data was analyzed in 2 time periods: 1) total 60 min test session and 2) the last 30 min of the test session. The quantified data over the final 30 min time period are presented. Repeated measure ANOVA found a significant genotype and drug interaction over both time periods. As measured by total distance traveled, the coloboma mice had roughly 6- to 10-fold higher saline-induced activity compared to the wildtype mice (11,246±3213 centimeters vs. 1035±252 centimeters, FIGS. 3A and 3B).

[3] = tested on: patients with mild cognitive impairment (MCI); assay: Rapid Visual Information Processing (RVIP) test (CANTAB), clinical trial; format: in vivo, human; conditions: 600 mg tid
Method: A clinical trial was initiated to determine the effect of the GABAB receptor antagonist, ABPA, on specific tests of cognition in non-demented older individuals with diminished memory function who met prospective criteria for mild cognitive impairment (MCI). Patients aged 60-85 with MCI enrolled in this double-blind, randomized trial. Patients were randomized to ABPA (600 mg tid) or placebo for 8 weeks. Verbal, paper and computer tests of memory and cognition were made by trained assessors at baseline (before administration of ABPA or placebo) and after 2, 5, and 8 weeks of treatment. Among these were selected tests from the Cambridge Neuropsychological Test Automated Battery (CANTAB), a computerized battery of tests for neuropsychological evaluation (Robbins et al., 1994, “Cambridge Neuropsychological Test Automated Battery (CANTAB): A factor analytic study of a large sample of normal elderly volunteers,” Dementia 5:266-281). […]
The Rapid Visual Information Processing (RVIP) test is a test of sustained attention with a small working memory component. […] Responses were recorded with a button press. Reaction time, or mean hit latency, for all correct responses was recorded, as were additional signal detection measures (e.g., total hits, total misses and total false alarms). […]

patients with MCI = assay: CANTAB tests of psychomotor speed, clinical trials; format: in vivo, human
Method: (§5) A clinical trial was initiated to determine the effect of the GABAB receptor antagonist, ABPA, on specific tests of cognition in non-demented older individuals with diminished memory function who met prospective criteria for mild cognitive impairment (MCI). Patients aged 60-85 with MCI enrolled in this double-blind, randomized trial. Patients were randomized to ABPA (600 mg tid) or placebo for 8 weeks. Verbal, paper and computer tests of memory and cognition were made by trained assessors at baseline (before administration of ABPA or placebo) and after 2, 5, and 8 weeks of treatment. Among these were selected tests from the Cambridge Neuropsychological Test Automated Battery (CANTAB), a computerized battery of tests for neuropsychological evaluation (Robbins et al., 1994, “Cambridge Neuropsychological Test Automated Battery (CANTAB): A factor analytic study of a large sample of normal elderly volunteers,” Dementia 5:266-281). Tests assessing memory, attention and psychomotor speed were administered to the patient by a neuropsychologist or equivalent via a computer with a touch screen, thus testing the individual's cognitive performance rather than ability to use a computer. CANTAB tests have been proven to be highly sensitive and specific in differentiating patients with a number of neurological conditions from each other and from normal controls.

GABAC receptor = conditions: reported in U.S. Pat. No. 6,632,806; cited from earlier work
[4] = tested on: wildtype mice (C3H/HeSNJ); assay: Open field test, wildtype mice; format: in vivo, mouse; conditions: for locomotor activity of wildtype controls: final 30 min
Excerpt: as §1, §2
as §3, with “The washout period between tests ranged from 3-7 days.” left out, “An effect was considered significant if p<0.05. Outliers that fell above and below two standard deviations away from the mean were removed from the final analysis.” left out
as §4, with “Repeated measure ANOVA found a significant genotype and drug interaction over both time periods.” left out

[5] = tested on: patients with mild cognitive impairment (MCI); assay: Five Choice Reaction Time test (CANTAB), clinical trial; format: in vivo, human; conditions: 600 mg tid
Method: as §5
110 patients were randomized; 75 were administered ABPA and 35 were administered placebo (56% men; mean age: 74 years).
The Five Choice Reaction Time test measures the speed of response to the appearance of a visual stimulus. Patients rested their hand on a press-pad placed on the desk directly in front of the computer screen, holding down the press-pad until a brief yellow flash appeared in 1 of the 5 circles located at various positions around the screen. […] The computer recorded 2 measures of response speed: reaction time, which was the time taken to lift the hand from the press-pad, and movement time, which was the latency from press-pad release to the time that the screen was touched. […]

[6] = tested on: dopamine (DA) neurons in the ventral tegmental area (VTA); conditions: systemic administration; cited from earlier work
coloboma mice (Cm/+) = conditions: open field test; d-amphetamine at low doses; cited from earlier work
wildtype mice = conditions: d-amphetamine at the same dose as in coloboma mice; cited from earlier work
[7] = tested on: coloboma mutant mice (Cm/+); assay: Open field test, coloboma mutant mice; format: in vivo, mouse; conditions: parallel experiments
[8] = tested on: patients diagnosed with adult ADHD; conditions: cited from earlier work

In the case of `NCCCCC(=O)O` [5-AVA], the “dopamine release in the striatum” value [1] is given as “increase dopamine release in the striatum”.

In the case of `CCCCP(=O)(O)CCCN` [ABPA, 3-aminopropyl-(n-butyl)-phosphinic acid], the “frequency of zone crossings” value ([2]; 0.3 mg/kg i.p., p=0.04, to within range of saline-treated wildtype) is reported as “significant decrease in the frequency of zone crossings”, the “total distance traveled / locomotor activity” value ([2]; 0.3 mg/kg i.p., p=0.07) is reported as “strong trend to decreasing the activity” and the “total distance traveled / locomotor activity” value ([2]; 3 mg/kg i.p., p=0.03) is reported as “significantly decreased locomotor activity levels”. The “frequency of zone crossings” value ([2]; 3 mg/kg i.p., p=0.06) was “strong trend to decreasing the zone crossings”, the “total distance traveled / locomotor activity” value ([2]; 30 mg/kg i.p., p=0.03) was “significantly decreased locomotor activity levels” and the “frequency of zone crossings” value ([2]; 30 mg/kg i.p., p=0.04, to within range of saline-treated wildtype) was “significant decrease in the frequency of zone crossings”. For the same compound, the “mean hit latency, mean change from Baseline” value ([3]; Week 5, p=0.03 vs placebo (+15.0)) was -37.3 ms, the “mean hit latency, mean change from Baseline” value ([3]; Week 8, p=0.02 vs placebo (−5.9)) was -61.6 ms and the psychomotor speed (patients with MCI) was “significant improvements in psychomotor speed”. The GABAC receptor antagonism (GABAC receptor) was “antagonize”, the “locomotor activity of wildtype controls” value ([4]; 3 mg/kg i.p.) was “no effect on the activity of wildtype controls” and the “locomotor activity of wildtype controls” value ([4]; 30 mg/kg i.p.) was “no effect on the activity of wildtype controls”. The “mean reaction time, change compared to baseline” value ([5]; 8 weeks, p=0.002 vs placebo (+9.4)) was −19.7 milliseconds, the “reaction time vs baseline” value ([5]; Week 2, p=0.074 vs placebo) was “Decreased reaction time” and the “reaction time vs baseline” value ([5]; Week 5, p=0.070 vs placebo) was “Decreased reaction time”.

In the case of `CCOC(OCC)P(=O)(O)CCCN` [CGP 35348], the “burst firing of VTA dopamine neurons” value [6] is listed as “long-lasting increase in burst firing”.

For `CNCC[C@@H](Oc1ccccc1C)c1ccccc1` [atomoxetine], the “frequency of zone crossings” value ([2]; 0.1 mg/kg i.p., p=0.06) is given as “strong trend to decreasing the zone crossings”, the total distance traveled ([2]; 0.1 mg/kg i.p., final 30 min of 60-min session, vs saline-treated Cm mutants, p=0.03) is given as “significantly decreased total distance traveled” and the “activity levels / hyperactivity of coloboma mice” value (“activity levels / hyperactivity” below) (coloboma mice (Cm/+)) is given as “reduces hyperactivity”. For the same compound, the “activity levels of wildtype mice” value (wildtype mice) was “without affecting activity levels”.

For `NCC(CC(=O)O)c1ccc(Cl)cc1` (stereo not drawn) [baclofen], the “dopamine release in the striatum” value [1] is given as “decrease in striatal dopamine”.

In the case of `C[C@H](N)Cc1ccccc1` [d-amphetamine, dextro-amphetamine], the “activity in coloboma mice” value ([7]; 0.5 mg/kg) is reported as “did not reduce activity”, the “activity in coloboma mice” value ([7]; 1 mg/kg) is reported as “did not reduce activity” and the “activity in coloboma mice” value ([7]; 4 mg/kg) is reported as “did not reduce activity”. The frequency of rearing ([7]; 4 mg/kg) was “did reduce the frequency of rearing”, the “activity levels / hyperactivity” value (coloboma mice (Cm/+)) was “reduced” and the “activity in control (wildtype) mice” value ([4]; parallel experiments) was “did increase activity”. For the same compound, the “rearing frequency in control (wildtype) mice” value ([4]; parallel experiments) was “no effect on rearing frequency” and the “activity levels of wildtype mice” value (wildtype mice) was “profound increases in activity”.

In the case of `COC(=O)C(c1ccccc1)C1CCCCN1` (stereo not drawn) [methylphenidate], the “activity levels / hyperactivity” value (coloboma mice (Cm/+)) is listed as “failed to normalize the hyperactivity”, the “performance in the RVIP test” value [8] is listed as “improve performance in the RVIP test” and the “activity levels of wildtype mice” value (wildtype mice) is listed as “increasing locomotor activity”.
